The values below are quoted from earlier work in patent US20100086572A1, “RATIONAL PPI DOSAGE FORMS” (priority 2005, published 2010).

Like-named read-outs stand apart in the source and are kept apart here.

For data set [1] the following is noted: 0.5 hours.
The test system of data set [2] is experimentally induced colitis. The note with it: in vivo.

In the case of `Cc1c(OCC(F)(F)F)ccnc1C[S+]([O-])c1nc2ccccc2[nH]1` (stereo not drawn) [lansoprazole], the “drug degrading in aqueous solution” value in data set [1] (pH 5, 37° C.) is recorded as “About 49%”; in data set [1] (pH 6, 37° C.) it was about 10%; in data set [1] (pH 7, 37° C.), about 2%; in data set [1] (pH 8, 37° C.) it was about 1%. The “area under the plasma concentration curve (AUC)” value runs as follows: (30 mg once a day) 1934 ng·h/mL; (60 mg once a day) 4743 ng·h/mL; (60 mg three times a day) 14083 ng·h/mL; (60 mg twice a day) 8508 ng·h/mL. Besides, the “formation of experimentally induced colitis” value in data set [2] is “inhibits the formation of experimentally induced-induced colitis”.
